Experimental data from patent US9890153B2, “Substituted 1H-pyrrolo [2, 3-b] pyridine and 1H-pyrazolo [3, 4-b] pyridine derivatives as salt inducible kinase 2 (SIK2) inhibitors” (Arrien Pharmaceuticals LLC, priority 2012, dated 2018).
pIC50: −log10 of the molar value.

Tests used:
Assay type in all cases: biochemical
[1] = biological target: SIK2 (QIK) (SEQ ID NO: 11) (Homo sapiens, UniProt Q9H0K1); experiment: SIK2 kinase assay (radiometric, 10 μM ATP); conditions: read-out: SIK2 (QIK) (SEQ ID NO: 11) kinase inhibition result
Chain of SIK2 (QIK) (SEQ ID NO: 11) (Q9H0K1 whole entry): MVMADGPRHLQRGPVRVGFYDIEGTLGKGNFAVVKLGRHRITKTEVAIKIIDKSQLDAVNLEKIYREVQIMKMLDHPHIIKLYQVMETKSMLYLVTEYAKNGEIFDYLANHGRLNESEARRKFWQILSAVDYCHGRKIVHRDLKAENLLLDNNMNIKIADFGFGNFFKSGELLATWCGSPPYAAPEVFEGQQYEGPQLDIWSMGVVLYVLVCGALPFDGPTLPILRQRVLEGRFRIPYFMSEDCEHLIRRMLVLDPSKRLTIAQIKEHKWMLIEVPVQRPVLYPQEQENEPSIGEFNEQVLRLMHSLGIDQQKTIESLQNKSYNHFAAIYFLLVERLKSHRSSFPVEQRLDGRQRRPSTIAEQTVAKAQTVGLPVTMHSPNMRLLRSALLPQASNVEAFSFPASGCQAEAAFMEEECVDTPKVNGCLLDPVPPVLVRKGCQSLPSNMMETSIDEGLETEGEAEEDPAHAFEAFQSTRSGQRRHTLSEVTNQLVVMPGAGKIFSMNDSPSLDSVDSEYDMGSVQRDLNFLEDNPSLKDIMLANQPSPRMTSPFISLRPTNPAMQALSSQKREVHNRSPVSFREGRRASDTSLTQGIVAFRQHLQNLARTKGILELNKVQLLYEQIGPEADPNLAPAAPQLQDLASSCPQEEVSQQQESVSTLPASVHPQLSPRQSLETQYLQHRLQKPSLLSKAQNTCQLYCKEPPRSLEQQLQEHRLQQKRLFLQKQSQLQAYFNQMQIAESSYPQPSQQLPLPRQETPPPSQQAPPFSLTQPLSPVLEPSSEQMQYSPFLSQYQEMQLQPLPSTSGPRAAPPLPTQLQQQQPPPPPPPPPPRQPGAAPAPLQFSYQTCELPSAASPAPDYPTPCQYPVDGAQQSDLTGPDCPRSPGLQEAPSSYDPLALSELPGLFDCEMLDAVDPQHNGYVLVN
Method in brief: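 Radiometric filter-binding format: enzyme and substrate peptide incubated with or without compound and ATP mix for 20 min at 30 °C. Reaction stopped with phosphoric acid, captured on filter mats and washed with 0.8% phosphoric acid before counting.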

[2] = biological target: T1, SIK1 (SEQ ID NO: 10) (Homo sapiens, UniProt P57059); experiment: Protein kinase assay, SIK1; conditions: read-out: SIK1 (SEQ ID NO: 10) kinase inhibition result
T1 construct: Reaction Biology Corporation (assay service, HotSpot panel)
T1 sequence (P57059 whole entry): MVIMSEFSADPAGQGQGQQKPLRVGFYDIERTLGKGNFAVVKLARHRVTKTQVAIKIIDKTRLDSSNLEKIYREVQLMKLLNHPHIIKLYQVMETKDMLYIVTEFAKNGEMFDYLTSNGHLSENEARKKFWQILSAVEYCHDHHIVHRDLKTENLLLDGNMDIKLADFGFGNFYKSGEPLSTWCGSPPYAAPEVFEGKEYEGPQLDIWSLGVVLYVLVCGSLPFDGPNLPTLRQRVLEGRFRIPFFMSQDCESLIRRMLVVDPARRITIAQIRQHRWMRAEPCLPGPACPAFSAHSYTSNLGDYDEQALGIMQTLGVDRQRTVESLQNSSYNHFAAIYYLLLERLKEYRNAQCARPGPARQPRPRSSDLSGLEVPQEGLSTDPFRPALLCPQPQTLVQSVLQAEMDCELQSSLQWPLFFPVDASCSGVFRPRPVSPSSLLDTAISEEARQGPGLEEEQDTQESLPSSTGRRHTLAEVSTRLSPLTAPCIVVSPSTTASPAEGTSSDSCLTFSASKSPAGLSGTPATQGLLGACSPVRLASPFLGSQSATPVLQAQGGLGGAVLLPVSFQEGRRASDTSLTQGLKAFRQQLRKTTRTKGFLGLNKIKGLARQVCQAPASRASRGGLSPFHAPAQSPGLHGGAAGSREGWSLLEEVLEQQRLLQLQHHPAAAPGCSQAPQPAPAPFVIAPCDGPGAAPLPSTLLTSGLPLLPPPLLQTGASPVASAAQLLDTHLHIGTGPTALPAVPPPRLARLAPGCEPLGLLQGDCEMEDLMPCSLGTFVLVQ
Protocol: (§1) Briefly, specific kinase/substrate pairs along with required cofactors were prepared in reaction buffer; 20 mM Hepes (pH 7.5), 10 mMmgCl2, 1 mM EGTA, 0.02% Brij35, 0.02 mg/ml BSA, 0.1 mM Na3VO4, 2 mM DTT, 1% DMSO. Compounds were delivered into the reaction, followed ˜20 min later by addition of a mixture of ATP (Sigma) and 33P ATP (PerkinElmer) to a final concentration of 10 μM. […] IC50 values and curve fits were obtained using Prism (GraphPad Software). Kinome tree representations were prepared using Kinome Mapper (http://www.reactionbiology.com/apps/kinome/mapper/LaunchKinome.htm).

[3] = biological target: T2, SIK3 (QSK) (SEQ ID NO: 24) (Homo sapiens, UniProt Q9Y2K2); experiment: Protein kinase assay, SIK3; conditions: read-out: SIK3 (QSK) (SEQ ID NO: 24) kinase inhibition result
T2 construct: Reaction Biology Corporation (assay service, HotSpot panel)
T2 sequence (Q9Y2K2 whole entry): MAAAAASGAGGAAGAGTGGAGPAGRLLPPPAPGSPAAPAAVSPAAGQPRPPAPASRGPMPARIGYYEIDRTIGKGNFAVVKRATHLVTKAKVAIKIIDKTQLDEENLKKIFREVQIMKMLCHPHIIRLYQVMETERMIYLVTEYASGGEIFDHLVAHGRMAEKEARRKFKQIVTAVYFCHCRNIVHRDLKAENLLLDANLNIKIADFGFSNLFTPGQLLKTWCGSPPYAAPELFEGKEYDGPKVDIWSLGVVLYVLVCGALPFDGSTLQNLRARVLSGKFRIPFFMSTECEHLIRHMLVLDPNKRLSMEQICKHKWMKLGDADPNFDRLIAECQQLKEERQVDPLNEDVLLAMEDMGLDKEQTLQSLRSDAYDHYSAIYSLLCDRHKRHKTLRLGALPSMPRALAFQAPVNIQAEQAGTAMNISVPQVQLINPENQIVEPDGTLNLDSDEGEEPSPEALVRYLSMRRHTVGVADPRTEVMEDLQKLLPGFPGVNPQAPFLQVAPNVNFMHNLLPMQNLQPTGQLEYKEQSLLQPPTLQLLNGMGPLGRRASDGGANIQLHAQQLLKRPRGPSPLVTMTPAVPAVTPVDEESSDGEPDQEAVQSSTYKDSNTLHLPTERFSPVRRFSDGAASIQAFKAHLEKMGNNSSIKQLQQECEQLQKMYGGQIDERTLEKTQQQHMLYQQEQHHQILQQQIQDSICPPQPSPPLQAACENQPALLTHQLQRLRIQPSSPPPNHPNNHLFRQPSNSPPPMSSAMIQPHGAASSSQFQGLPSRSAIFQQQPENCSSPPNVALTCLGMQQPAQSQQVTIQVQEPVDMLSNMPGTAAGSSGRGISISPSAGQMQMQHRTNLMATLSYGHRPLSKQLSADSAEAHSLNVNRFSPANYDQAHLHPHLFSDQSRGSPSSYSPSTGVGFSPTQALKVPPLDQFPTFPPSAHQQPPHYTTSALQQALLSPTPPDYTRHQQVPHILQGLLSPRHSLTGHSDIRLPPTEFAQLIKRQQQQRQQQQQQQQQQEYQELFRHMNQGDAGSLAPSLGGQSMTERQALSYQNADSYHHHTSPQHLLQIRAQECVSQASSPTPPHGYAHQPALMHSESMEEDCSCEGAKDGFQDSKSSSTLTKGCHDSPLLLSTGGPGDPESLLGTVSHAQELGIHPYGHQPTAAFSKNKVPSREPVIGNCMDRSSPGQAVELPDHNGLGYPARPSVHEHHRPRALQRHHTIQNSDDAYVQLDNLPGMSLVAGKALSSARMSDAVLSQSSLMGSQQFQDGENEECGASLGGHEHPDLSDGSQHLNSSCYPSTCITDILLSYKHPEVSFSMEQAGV
Protocol: as §1

Row | pIC50 [1] | pIC50 [2] | pIC50 [3] | SMILES
1 | > 7.00 | < 7.00 | < 7.00 | FC1(F)Oc2cccc(-c3c[nH]c4ncc(-c5csc(N6CCOCC6)n5)cc34)c2O1 [Example 199, 4-(4-(3-(2,2-difluorobenzo[d][1,3]dioxol-4-yl)-1H-pyrrolo[2,3-b]pyridin-5-yl)thiazol-2-yl)morpholine]
2 | > 7.00 | < 7.00 | > 7.00 | FC1(F)Oc2ccc(-c3c[nH]c4ncc(-c5ccc(CN6CCOCC6)s5)cc34)cc2O1 [Example 200]
3 | > 7.00 | < 7.00 | < 7.00 | COc1c(F)cccc1-c1c[nH]c2nccc(-c3ccsc3)c12 [Example 120, 3-(3-fluoro-2-methoxyphenyl)-4-(thiophen-3-yl)-1H-pyrrolo[2,3-b]pyridine]
4 | > 7.00 | < 7.00 | > 7.00 | OCCN1CCN(c2cnn(-c3cnc4[nH]cc(-c5ccc6c(c5)OC(F)(F)O6)c4c3)c2)CC1 [Example 225, 2-(4-(1-(3-(2,2-difluorobenzo[d][1,3]dioxol-5-yl)-1H-pyrrolo[2,3-b]pyridin-5-yl)-1H-pyrazol-4-yl)piperazin-1-yl)ethanol]
5 | > 7.00 | < 7.00 | < 6.00 | COc1ccccc1-c1c[nH]c2ncc(-c3ccc(C)o3)cc12 [Example 115, 3-(2-methoxyphenyl)-5-(5-methylfuran-2-yl)-1H-pyrrolo[2,3-b]pyridine]
6 | < 7.00 | < 7.00 | < 7.00 | COc1ccccc1-c1c[nH]c2nccc(-c3ccsc3)c12 [Example 17, 3-(2-methoxyphenyl)-4-(thiophen-3-yl)-1H-pyrrolo[2,3-b]pyridine]
7 | > 7.00 | < 6.00 | < 7.00 | COc1c(F)cc(F)cc1-c1c[nH]c2ncc(-c3cccc(S(=O)(=O)N(C)C(C)(C)C)c3)cc12 [Example 181, N-(tert-butyl)-3-(3-(3,5-difluoro-2-methoxyphenyl)-1H-pyrrolo[2,3-b]pyridin-5-yl)-N-methylbenzenesulfonamide]
8 | > 7.00 | < 7.00 | < 7.00 | FC1(F)CN(c2c[nH]c3ncc(-c4ccsc4)cc23)C1 [Example 136, 3-(3,3-difluoroazetidin-1-yl)-5-(thiophen-3-yl)-1H-pyrrolo[2,3-b]pyridine]
9 | < 7.00 | < 6.00 | < 6.00 | Fc1ccc(-c2n[nH]c3nccc(-c4ccsc4)c23)c(F)c1 [Example 2, 3-(2,4-difluorophenyl)-4-(thiophen-3-yl)-1H-pyrazolo[3,4-b]pyridine]
10 | > 7.00 | < 7.00 | > 7.00 | CN(C(C)(C)C)S(=O)(=O)c1cccc(-c2cnc3[nH]cc(-c4cccc5c4OC(F)(F)O5)c3c2)c1 [Example 196, N-(tertbutyl)-3-(3-(2,2-difluorobenzo[d][1,3]dioxol-4-yl)-1H-pyrrolo[2,3-b]pyridin-5-yl)-N-methylbenzene-sulfonamide]
11 | > 7.00 | < 7.00 | < 7.00 | CN(C)S(=O)(=O)c1cccc(-c2cnc3[nH]cc(-c4cccc(F)c4Cl)c3c2)c1 [Example 135, 3-(3-(2-chloro-3-fluorophenyl)-1H-pyrrolo[2,3-b]pyridin-5-yl)-N,N-dimethylbenzenesulfonamide]
12 | > 7.00 | < 6.00 | < 7.00 | Fc1c(-c2c[nH]c3ncc(-c4ccsc4)cc23)ccnc1Cl [Example 141, 3-(2-chloro-3-fluoropyridin-4-yl)-5-(thiophen-3-yl)-1H-pyrrolo[2,3-b]pyridine]
13 | < 7.00 | < 6.00 | < 6.00 | Cc1ccc(-c2ccnc3[nH]cc(-c4cccc(F)c4Cl)c23)o1 [Example 116, 3-(2-chloro-3-fluorophenyl)-4-(5-methylfuran-2-yl)-1H-pyrrolo[2,3-b]pyridine]
14 | > 7.00 | < 6.00 | < 7.00 | COc1c(F)cccc1-c1c[nH]c2ncc(-c3cnc(N4CCOCC4)s3)cc12 [Example 176, 4-(5-(3-(3-fluoro-2-methoxyphenyl)-1H-pyrrolo[2,3-b]pyridin-5-yl)thiazol-2-yl)morpholine]
15 | < 7.00 | < 7.00 | < 7.00 | Oc1ccccc1-c1c[nH]c2ncc(-c3ccsc3)cc12 [Example 123, 2-(5-(thiophen-3-yl)-1H-pyrrolo[2,3-b]pyridin-3-yl)phenol]
16 | > 7.00 | < 6.00 | < 7.00 | COc1c(F)cc(F)cc1-c1c[nH]c2ncc(-c3cccc(S(=O)(=O)N(C)C)c3)cc12 [Example 185, 3-(3-(3,5-difluoro-2-methoxyphenyl)-1H-pyrrolo[2,3-b]pyridin-5-yl)-N,N-dimethylbenzenesulfonamide]
17 | > 7.00 | < 7.00 | < 7.00 | Oc1c(F)cccc1-c1c[nH]c2ncc(-c3ccc(CN4CCOCC4)s3)cc12 [Example 193, 2-fluoro-6-(5-(5-(morpholinomethyl)thiophen-2-yl)-1H-pyrrolo[2,3-b]pyridin-3-yl)phenol]
18 | < 6.00 | < 6.00 | < 6.00 | CS(=O)(=O)N1CCC(n2cc(-c3cnc4[nH]cc(-c5ccc6c(c5)OC(F)(F)O6)c4c3)cn2)CC1 [Example 221, 3-(2,2-difluorobenzo[d][1,3]dioxol-5-yl)-5-(1-(1-(methylsulfonyl)piperidin-4-yl)-1H-pyrazol-4-yl)-1H-pyrrolo[2,3-b]pyridine]
19 | > 7.00 | > 7.00 | > 7.00 | FC1(F)Oc2cccc(-c3c[nH]c4ncc(-c5cnn(C6CCNCC6)c5)cc34)c2O1 [Example 209, 3-(2,2-difluorobenzo[d][1,3]dioxol-4-yl)-5-(1-(piperidin-4-yl)-1H-pyrazol-4-yl)-1H-pyrrolo[2,3-b]pyridine]
20 | < 6.00 | < 6.00 | < 6.00 | FC1(F)Oc2ccc(-c3c[nH]c4ncc(-c5cnc(N6CCOCC6)s5)cc34)cc2O1 [Example 201, 4-(5-(3-(2,2-difluorobenzo[d][1,3]dioxol-5-yl)-1H-pyrrolo[2,3-b]pyridin-5-yl)thiazol-2-yl)morpholine]
21 | > 7.00 | < 7.00 | > 7.00 | COc1c(F)cccc1-c1c[nH]c2ncc(-c3csc(N4CCOCC4)n3)cc12 [Example 207, 4-(4-(3-(3-fluoro-2-methoxyphenyl)-1H-pyrrolo[2,3-b]pyridin-5-yl)thiazol-2-yl)morpholine]
22 | < 7.00 | < 7.00 | < 7.00 | Oc1c(F)cc(F)cc1-c1c[nH]c2ncc(-c3ccsc3)cc12 [Example 124, 2,4-difluoro-6-(5-(thiophen-3-yl)-1H-pyrrolo[2,3-b]pyridin-3-yl)phenol]
23 | > 7.00 | < 7.00 | > 7.00 | CN1CCN(S(=O)(=O)n2cc(-c3cnc4[nH]cc(-c5ccc6c(c5)OC(F)(F)O6)c4c3)cn2)CC1 [Example 219, 3-(2,2-difluorobenzo[d][1,3]dioxol-5-yl)-5-(1-((4-methylpiperazin-1-yl)sulfonyl)-1H-pyrazol-4-yl)-1H-pyrrolo[2,3-b]pyridine]
24 | > 7.00 | < 6.00 | < 7.00 | COc1c(F)cccc1-c1c[nH]c2ncc(-c3ccc(CN4CCCC4)s3)cc12 [Example 174, 3-(3-fluoro-2-methoxyphenyl)-5-(5-(pyrrolidin-1-ylmethyl)thiophen-2-yl)-1H-pyrrolo[2,3-b]pyridine]
25 | > 7.00 | < 7.00 | > 7.00 | O=C(c1c(F)cccc1F)c1c[nH]c2ncc(-c3cnc(N4CCOCC4)s3)cc12 [Example 213, (2,6-difluorophenyl)(5-(2-morpholinothiazol-5-yl)-1H-pyrrolo[2,3-b]pyridin-3-yl)methanone]
26 | > 7.00 | < 6.00 | < 7.00 | COc1c(F)cccc1-c1c[nH]c2ncc(-c3cccc(S(=O)(=O)N(C)C(C)(C)C)c3)cc12 [Example 180]
27 | < 7.00 | < 7.00 | < 6.00 | Cc1nc(Nc2cnc3[nH]cc(-c4cccc(F)c4Cl)c3c2)sc1Cl [Example 134, 5-chloro-N-(3-(2-chloro-3-fluorophenyl)-1H-pyrrolo[2,3-b]pyridin-5-yl)-4-methylthiazol-2-amine]
28 | > 7.00 | < 7.00 | > 7.00 | OCCN1CCC(n2cc(-c3cnc4[nH]cc(-c5ccc6c(c5)OC(F)(F)O6)c4c3)cn2)CC1 [Example 227, 2-(4-(4-(3-(2,2-difluorobenzo[d][1,3]dioxol-5-yl)-1H-pyrrolo[2,3-b]pyridin-5-yl)-1H-pyrazol-1-yl)piperidin-1-yl)ethanol]
29 | < 7.00 | < 7.00 | < 6.00 | COc1cc(Cl)ccc1-c1n[nH]c2nccc(-c3ccsc3)c12 [Example 6, 3-(4-chloro-2-methoxyphenyl)-4-(thiophen-3-yl)-1H-pyrazolo[3,4-b]pyridine]
30 | > 7.00 | < 7.00 | > 7.00 | COc1c(F)cc(F)cc1-c1c[nH]c2ncc(-c3csc(N4CCOCC4)n3)cc12 [Example 208, 4-(4-(3-(3,5-difluoro-2-methoxyphenyl)-1H-pyrrolo[2,3-b]pyridin-5-yl)thiazol-2-yl)morpholine]
